This is an account of results in patent US12522599B2, “Crystal forms of acrylic acid derivatives, preparation method therefor and use thereof” (ZHEJIANG HISUN PHARMACEUTICAL CO., LTD., priority 2019, dated 2026).

A short description of data set [1]: Stability experiment (75% RH, 92.5% RH, 40° C., 60° C. and light for 10 days; XRPD pattern and purity). In kind it is physicochemical. The conditions noted are these: for stability (in words): 60° C. and light for 10 days. The protocol: X-ray powder diffraction instrument and test conditions involved in the present disclosure: the model of the X-ray diffraction instrument was Rigaku D/max-2200 Cu target; the operation method included a scanning speed of 10°/min and scanning step width of 0.01°.
High-performance liquid chromatography (HPLC) test conditions involved in the present disclosure: the model of the liquid chromatograph was Agilent 1260; the chromatographic column was Agilent Eclipse XDB C-18 250 mm*4.6 mm Sum; the detection wavelength was 280 nm; and the column temperature was 35° C.
The amorphous form of compound of formula I prepared in Preparation Example, the crystal form A of the compound of formula I prepared in Example 1, the crystal form B of the compound of formula I prepared in Example 7, and the crystal form C of the compound of formula I prepared in Example 11 were placed in 75% RH, 92.5% RH, 40° C., 60° C. and light for 10 days respectively, and the X-ray powder diffraction pattern and purity of each crystal form were measured.

Data set [2] is described as follows: Granularity experiment. It is filed as physicochemical. The method, then:
The amorphous form of compound of formula I prepared in Preparation Example, the crystal form A of the compound of formula I prepared in Example 1, the crystal form B of the compound of formula I prepared in Example 7, and the crystal form C of the compound of formula I prepared in Example 11 were measured for granularity, and the specific results are shown in the following table: […]

Data set [3] can be described thus: Flowability test (angle of repose). It is filed as physicochemical. The protocol: The amorphous form of compound of formula I prepared in Preparation Example, the crystal form A of the compound of formula I prepared in Example 1, the crystal form B of the compound of formula I prepared in Example 7, and the crystal form C of the compound of formula I prepared in Example 11 were measured for angle of repose, and the specific results are shown in the following table: […]

Data set [4] has as its target T1, ERα (Homo sapiens, UniProt P03372).
T1 sequence (P03372 1-595): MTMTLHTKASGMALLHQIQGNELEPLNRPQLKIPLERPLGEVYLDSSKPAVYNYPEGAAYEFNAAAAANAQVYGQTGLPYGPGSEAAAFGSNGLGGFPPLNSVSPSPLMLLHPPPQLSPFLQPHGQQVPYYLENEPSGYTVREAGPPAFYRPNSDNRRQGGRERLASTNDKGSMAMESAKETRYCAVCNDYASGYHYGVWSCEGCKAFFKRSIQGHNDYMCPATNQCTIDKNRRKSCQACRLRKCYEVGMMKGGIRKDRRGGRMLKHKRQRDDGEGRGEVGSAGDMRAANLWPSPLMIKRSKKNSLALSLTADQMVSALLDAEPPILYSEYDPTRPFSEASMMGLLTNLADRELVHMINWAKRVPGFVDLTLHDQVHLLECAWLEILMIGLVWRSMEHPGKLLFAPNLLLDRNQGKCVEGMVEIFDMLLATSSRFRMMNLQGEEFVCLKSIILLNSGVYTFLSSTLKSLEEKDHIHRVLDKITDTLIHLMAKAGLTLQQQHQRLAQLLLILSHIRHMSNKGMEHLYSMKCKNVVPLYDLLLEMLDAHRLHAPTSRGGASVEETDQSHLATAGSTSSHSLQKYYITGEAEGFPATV
The conditions noted are these: as indicated in WO2017080338A1; cited from earlier work.

[5] abbreviates: compared with crystal forms A, B and C.

With `C[C@@H]1Cc2c([nH]c3ccccc23)[C@@H](c2c(F)cc(/C=C/C(=O)O)cc2F)N1CC1(F)CC1` [amorphous form, (E)-3-(3,5-difluoro-4-((1R,3R)-2-((1-fluorocyclopropyl)methyl)-3-methyl-2,3,4,9-tetrahydro-1H-pyrido[3,4-b]indol-1-yl)phenyl)acrylic acid], the Purity % is reported as 95.82% in data set [1] (0 day); 95.80% in data set [1] (40° C., 10 days); 95.67% in data set [1] (60° C., 10 days); 96.22% in data set [1] (75% RH, 10 days); 96.57% in data set [1] (92.5% RH, 10 days); 95.55% in data set [1] (Light, 10 days). The “granularity (in words)” value in data set [2] (setting [5]) was “significantly smaller than that of the crystal forms A, B, and C”. This compound also had a D50 in data set [2] (granularity) of 3.02 μm. The granularity in data set [2] (granularity, second column under amorphous form) turned out to be 23.01 μm. Besides, the “angle of repose (in words)” value in data set [3] (setting [5]) is “significantly larger than that of the crystal forms A, B and C”. The angle of repose is 43.2° in data set [3] (measurement 1), 41.9° in data set [3] (measurement 2) and 42.5° in data set [3] (measurement 3).

`C[C@@H]1Cc2c([nH]c3ccccc23)[C@@H](c2c(F)cc(/C=C/C(=O)O)cc2F)N1CC1(F)CC1` [compound of formula I, (E)-3-(3,5-difluoro-4-((1R,3R)-2-((1-fluorocyclopropyl)methyl)-3-methyl-2,3,4,9-tetrahydro-1H-pyrido[3,4-b]indol-1-yl)phenyl)acrylic acid]: the “effect of down-regulating ERα” value in data set [4] was “good effect of down-regulating ERα”.

`C[C@@H]1Cc2c([nH]c3ccccc23)[C@@H](c2c(F)cc(/C=C/C(=O)O)cc2F)N1CC1(F)CC1` [crystal form A, (E)-3-(3,5-difluoro-4-((1R,3R)-2-((1-fluorocyclopropyl)methyl)-3-methyl-2,3,4,9-tetrahydro-1H-pyrido[3,4-b]indol-1-yl)phenyl)acrylic acid]: the Purity % is reported as 99.33% in data set [1] (0 day); 99.27% in data set [1] (40° C., 10 days); 99.22% in data set [1] (60° C., 10 days); 99.31% in data set [1] (75% RH, 10 days); 99.34% in data set [1] (92.5% RH, 10 days); 99.27% in data set [1] (Light, 10 days). Besides, the “stability (in words)” value in data set [1] (75% RH, 92.5% RH, 40° C.) is given as “good stability”. The compound further registered a D50 in data set [2] (granularity) of 16.37 μm. Besides, the D90 in data set [2] (granularity) came out at 61.86 μm. In addition, the figures for the angle of repose in data set [3] (measurement 1), in data set [3] (measurement 2) and in data set [3] (measurement 3) were 30.6°, 29.6° and 30.5°, respectively.

Take `C[C@@H]1Cc2c([nH]c3ccccc23)[C@@H](c2c(F)cc(/C=C/C(=O)O)cc2F)N1CC1(F)CC1` [crystal form B, (E)-3-(3,5-difluoro-4-((1R,3R)-2-((1-fluorocyclopropyl)methyl)-3-methyl-2,3,4,9-tetrahydro-1H-pyrido[3,4-b]indol-1-yl)phenyl)acrylic acid]: the Purity % in data set [1] (0 day) stood at 99.87%; in data set [1] (40° C., 10 days), 99.77%; in data set [1] (60° C., 10 days) it was 99.75%; in data set [1] (75% RH, 10 days), 99.81%; in data set [1] (92.5% RH, 10 days), 99.81%; in data set [1] (Light, 10 days), 99.68%. Also, in data set [1] (75% RH, 92.5% RH, 40° C.), the “stability (in words)” value is recorded as “good stability”. For the same compound, the D50 in data set [2] (granularity) stood at 15.48 μm. Besides, the D90 in data set [2] (granularity) is on record as 60.79 μm. The angle of repose in data set [3] (measurement 1) is listed as 32.5°; in data set [3] (measurement 2), 31.3°; in data set [3] (measurement 3), 32.3°.

Regarding `C[C@@H]1Cc2c([nH]c3ccccc23)[C@@H](c2c(F)cc(/C=C/C(=O)O)cc2F)N1CC1(F)CC1` [crystal form C, (E)-3-(3,5-difluoro-4-((1R,3R)-2-((1-fluorocyclopropyl)methyl)-3-methyl-2,3,4,9-tetrahydro-1H-pyrido[3,4-b]indol-1-yl)phenyl)acrylic acid], the Purity % in data set [1] (0 day) is 99.78%; in data set [1] (40° C., 10 days), 99.80%; in data set [1] (60° C., 10 days), 99.84%; in data set [1] (75% RH, 10 days), 99.79%; in data set [1] (92.5% RH, 10 days) it was 99.78%; in data set [1] (Light, 10 days) it was 99.71%. Moreover, in data set [1] (75% RH, 92.5% RH, 40° C.), the “stability (in words)” value is “good stability”. This compound also came in with a D50 in data set [2] (granularity) of 15.02 μm. The compound further showed a D90 in data set [2] (granularity) of 59.88 μm. For the same compound, the angle of repose in data set [3] (measurement 1) is listed as 31.5°; in data set [3] (measurement 2), 31.8°; in data set [3] (measurement 3), 30.9°.
